Experimental data: patent US8173643B2, “N-substituted thiomorpholine derivatives as the inhibitors of dipeptidyl peptidase IV and the pharmaceutical uses thereof” (Beijing Molecule Science and Technology Co., Ltd., priority 2007, dated 2012)
Where a name gives a salt, the structure may show the parent alone. Each block holds one molecule with its values, some of them ahead of it.

Key:
DPP-IV = target: T1, DPP-IV (Homo sapiens, UniProt P27487); test: Determination of DPP-IV inhibitory activity and IC50 (enzyme from Caco-2 cell lysate, absorbance at 405 nm); type: biochemical; settings: for inhibition at 0.1 µM: Concentration 100 nM; for inhibition at 0.3 µM: Concentration 300 nM
T1 construct: endogenous in cells; host or cells: Caco-2 (human colon carcinoma), differentiated; NP-40 lysate, 35000 g supernatant
Method: Cultivation of human colon carcinoma cell-line cells (Caco-2): Caco-2 cells were cultivated in a culture medium of DMEM (high glucose, containing 10% fetal bovine serum, 1% NAA), and the cell lines were passaged in a proportion of 1:1 or 1:2; after nearly reaching confluence, the cells were further cultivated for 2-3 weeks, while changing the medium once every 2-3 days.
Preparation of DPP-IV: the cells were washed with a pre-cooled PBS for 2-3 times, and 0.5-1 ml ice-cold 10 mM Tris-HCl (containing 0.15 M NaCl, 0.04 t.i.u aprotinin, 0.5% nonionic detergent P40, pH 8) was added to each culture bottle to lysate the cells, followed by collecting them in a centrifuge tube. After centrifugation at 4° C., 35000 g for […], the obtained supernatant was collected, and subjected to a protein content detection, and then stored in a low temperature refrigerator.
The test groups included enzyme control group, substrate control group, enzyme reaction control group, and compound group, and the test was carried out in a 96-pore plate, using 150 μL reaction system. In the 96-pore plate, a diluted test compound was added in the compound group, 30 μL/pore; 20 μL DPP-IV solution was added in the enzyme control group, as well as in the compound group; an analytic buffer (25 mM Tris-HCl pH 7.4, containing 140 mM NaCl, 10 mM KCl, 1% bovine serum albumin) was added in 130 μL to the enzyme control group, in 125 μL to the substrate control group, in 105 μL to the enzyme reaction control group, and in 75 μL to the compound group; and then 25 μL substrate (1 mM) was added, followed by reacting at room temperature for 10 min. No substrate was added in the enzyme control group. After reacting for 10 min, 25% glacial acetic acid was added in 19 μL/pore to terminate the reaction. The absorbance was determined by using an enzyme calibrating apparatus at a wavelength of 405 nm.

[1] = test system: streptozotocin-induced DM male mouse; settings: 2 times/d, after 7 weeks; cited from earlier work
obese mouse = settings: 10 mg/kg, 2 times/d, long-term treatment; cited from earlier work
[2] = pig, in vivo, cited from earlier work

T1 sequence (P27487 whole entry): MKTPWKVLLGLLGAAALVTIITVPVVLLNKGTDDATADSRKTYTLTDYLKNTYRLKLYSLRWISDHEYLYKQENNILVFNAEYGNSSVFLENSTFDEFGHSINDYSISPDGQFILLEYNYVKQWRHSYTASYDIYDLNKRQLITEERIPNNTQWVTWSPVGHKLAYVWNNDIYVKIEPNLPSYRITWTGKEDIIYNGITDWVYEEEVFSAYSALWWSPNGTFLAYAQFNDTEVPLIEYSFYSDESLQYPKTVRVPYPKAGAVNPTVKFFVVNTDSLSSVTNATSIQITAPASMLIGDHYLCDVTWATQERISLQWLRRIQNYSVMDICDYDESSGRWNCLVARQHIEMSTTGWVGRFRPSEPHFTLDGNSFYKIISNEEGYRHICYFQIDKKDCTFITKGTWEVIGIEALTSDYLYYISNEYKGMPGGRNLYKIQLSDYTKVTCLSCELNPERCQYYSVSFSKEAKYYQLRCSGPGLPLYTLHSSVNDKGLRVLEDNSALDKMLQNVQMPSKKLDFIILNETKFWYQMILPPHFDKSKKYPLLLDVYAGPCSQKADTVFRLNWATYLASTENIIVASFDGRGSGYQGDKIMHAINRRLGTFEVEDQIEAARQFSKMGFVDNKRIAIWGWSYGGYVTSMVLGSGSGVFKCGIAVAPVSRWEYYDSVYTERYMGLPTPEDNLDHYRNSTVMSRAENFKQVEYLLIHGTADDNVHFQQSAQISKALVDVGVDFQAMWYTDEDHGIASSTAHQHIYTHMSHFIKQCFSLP

- inhibition at 0.01 µM (DPP-IV; Concentration 10 nM, read-out: Inhibitory rate(%)): 7.65 ± 0.68%
- inhibition at 0.03 µM (DPP-IV; Concentration 30 nM, read-out: Inhibitory rate(%)): 13.2 ± 1.92%
- inhibition at 0.1 µM (DPP-IV; read-out: Inhibitory rate(%)): 40.3 ± 3.09%
- inhibition at 0.3 µM (DPP-IV; read-out: Inhibitory rate(%)): 73 ± 1.74%
- inhibition at 1 µM (DPP-IV; Concentration 1000 nM, read-out: Inhibitory rate(%)): 101 ± 1.36%
- IC50 (DPP-IV; DPP-IV from Caco-2 cells): 189 ± 26.4 nM
Molecule: CC(C)[C@@H](N)C(=O)N1CCSC[C@H]1C#N (stereo in doubt) [Compound 1, (R)-3-cyano-4-(2-amino-3-methyl-butyryl)thiomorpholine hydrochloride]

Molecule: CC[C@H](C)[C@H](N)C(=O)N1CCSC1 [P32/98]
- fraction of islet β cells increased, as compared with the control group [1]: 12%
- number of islets increased, as compared with the control group [1]: 35%
- number of overall β cells increased, as compared with the control group [1]: 120%
- plasma insulin level [1]: approaching to normal

- inhibition at 0.1 µM (DPP-IV; read-out: Inhibitory rate(%)): 24.1 ± 2.41%
- inhibition at 0.3 µM (DPP-IV; read-out: Inhibitory rate(%)): 47.2 ± 0.64%
Molecule: CC(C)C[C@@H](N)C(=O)N1CCSC[C@H]1C#N [Compound 2, (R)-3-cyano-4-(2-amino-4-methyl-pentanoyl)thiomorpholine hydrochloride]

Molecule: CC(C)(C)[C@H](N)C(=O)N1CCC[C@H]1C#N [FE 999011]
- postponement of the occurrence of hyperglycemia (obese mouse): 21 days

Molecule: GIP: gastric inhibitory peptide, an incretin secreted by K cells, substrate of DPP-IV
- immunocompetence of intact GIP shown by radioimmunoassay ([2]; iv): 14.5%
- immunocompetence of GIP [2]: 49%
